# From the supplement of paper PMC10307832
# Assays:
# Assay in all cases: relative viability (nuclei count vs DMSO), 5 days (fraction); higher = more cells survive
# RO-3306 + Pemetrexed = compound: C1=CC2=C(C=CC(=C2)C=C3C(=O)NC(=NCC4=CC=CS4)S3)N=C1 [RO-3306] + Nc1nc2[nH]cc(CCc3ccc(C(=O)N[C@@H](CCC(=O)O)C(=O)O)cc3)c2c(=O)[nH]1 [Pemetrexed] (partner 0.2 µM)
# Summary of the method: (§1)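 Lung cancer cell lines were pin-tool dosed in 1536-well plates on the day after seeding, with either a lone drug or a fixed anchor-drug dose plus five library-drug doses (not always all listed) in √10 steps. Nuclei were counted on 4× images after 5 days. Relative viability is the ratio of treated-well to vehicle-well nuclei counts, with each value a median of duplicate plates.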
# [1] = compound: O=S(=O)(c1ccccc1)N(CC(F)(F)F)c1ccc(C(O)(C(F)(F)F)C(F)(F)F)cc1 + O=C(CCCCCCC(=O)Nc1ccccc1)NO [Vorinostat] (partner 1 µM)
# Summary of the method: as §1
# [2] = compound: O=S(=O)(c1ccccc1)N(CC(F)(F)F)c1ccc(C(O)(C(F)(F)F)C(F)(F)F)cc1 + C[C@@H](Oc1cc(-c2cnn(C3CCNCC3)c2)cnc1N)c1c(Cl)ccc(F)c1Cl [Crizotinib] (partner 1 µM)
# Summary of the method: as §1
# [3] = compound: O=S(=O)(c1ccccc1)N(CC(F)(F)F)c1ccc(C(O)(C(F)(F)F)C(F)(F)F)cc1 + Nc1nc2[nH]cc(CCc3ccc(C(=O)N[C@@H](CCC(=O)O)C(=O)O)cc3)c2c(=O)[nH]1 [Pemetrexed] (partner 0.2 µM)
# Summary of the method: as §1
# [4] = compound: O=S(=O)(c1ccccc1)N(CC(F)(F)F)c1ccc(C(O)(C(F)(F)F)C(F)(F)F)cc1 + Nc1ncn([C@H]2C[C@H](O)[C@@H](CO)O2)c(=O)n1 [Decitabine] (partner 2 µM)
# Summary of the method: as §1
# [5] = compound: O=S(=O)(c1ccccc1)N(CC(F)(F)F)c1ccc(C(O)(C(F)(F)F)C(F)(F)F)cc1 + NC(=O)Nc1cc(-c2cccc(F)c2)sc1C(=O)N[C@H]1CCCNC1 [AZD7762] (partner 0.2 µM)
# Summary of the method: as §1
Cell Line,relative viability (RO-3306 + Pemetrexed; first compound 0.01 µM),relative viability (RO-3306 + Pemetrexed; first compound 0.03162 µM),relative viability (RO-3306 + Pemetrexed; first compound 0.1 µM),relative viability (RO-3306 + Pemetrexed; first compound 0.3162 µM),relative viability (RO-3306 + Pemetrexed; first compound 1 µM),relative viability ([1]; first compound 0.8 µM),relative viability ([1]; first compound 2.53 µM),relative viability ([1]; first compound 8 µM),relative viability ([2]; first compound 0.8 µM),relative viability ([2]; first compound 2.53 µM),relative viability ([2]; first compound 8 µM),relative viability ([3]; first compound 0.8 µM),relative viability ([3]; first compound 2.53 µM),relative viability ([3]; first compound 8 µM),relative viability ([4]; first compound 0.8 µM),relative viability ([4]; first compound 2.53 µM),relative viability ([4]; first compound 8 µM),relative viability ([5]; first compound 0.8 µM),relative viability ([5]; first compound 2.53 µM),relative viability ([5]; first compound 8 µM)
NCI-H1734,0.394,0.41,0.372,0.414,0.432,1.01,0.898,0.498,0.789,0.728,0.649,0.438,0.431,0.422,0.524,0.477,0.477,0.617,0.67,0.343
LOU-NH91,0.354,0.346,0.346,0.399,0.373,0.985,0.913,1.04,0.748,0.775,0.753,0.424,0.434,0.35,0.846,0.823,0.894,0.801,0.8,0.796
LCLC-103H,0.474,0.461,0.448,0.457,0.464,0.859,0.746,0.78,1.14,1.13,1.15,0.457,0.465,0.467,0.739,0.743,0.734,0.841,0.826,0.948
NCI-H1651,0.644,0.569,0.554,0.556,0.54,0.626,0.547,0.525,1.02,0.882,0.849,0.726,0.61,0.521,0.793,0.668,0.517,0.471,0.449,0.39
NCI-H23,0.695,–,0.723,0.591,0.617,0.75,0.622,0.725,0.471,0.452,0.513,0.706,0.654,0.74,0.292,0.28,0.352,0.22,0.293,0.246
NCI-H322M,0.624,0.613,0.574,0.695,0.592,0.883,0.842,0.869,0.981,0.835,0.743,0.603,0.62,0.595,0.685,0.721,0.663,0.542,0.643,0.583
HCC-44,0.712,0.643,0.651,0.622,0.744,0.981,0.972,0.953,0.926,0.749,0.699,0.635,0.627,0.702,1.03,0.968,0.991,1.04,0.988,0.994
NCI-H596,0.519,0.403,0.467,0.522,0.452,0.583,0.559,0.6,0.921,0.947,0.926,0.549,0.528,0.562,1.04,0.899,1.05,1.04,0.946,0.933
NCI-H650,0.958,0.883,0.868,0.986,0.983,0.368,0.36,0.359,0.737,0.559,0.782,0.841,0.992,0.851,0.339,0.312,0.288,0.814,1.22,0.996
EMC-BAC-2,0.427,0.423,0.431,0.458,0.394,0.336,0.296,0.467,0.844,0.731,0.577,0.402,0.401,0.416,0.973,0.908,0.974,0.486,1.09,1.05
NCI-H2085,0.958,0.859,0.803,0.907,0.962,0.785,0.748,0.711,0.836,0.852,0.844,0.751,0.8,0.869,0.508,0.539,0.501,0.941,0.799,0.913
RERF-LC-KJ,0.515,0.48,0.493,0.459,0.449,0.735,0.588,0.616,0.787,0.749,0.773,0.477,0.453,0.461,0.752,0.701,0.687,0.973,0.889,0.825
NCI-H3122,0.203,0.193,0.456,0.195,0.197,1.01,0.948,1.19,0.271,0.253,0.259,0.209,0.19,0.201,0.301,0.385,0.421,1.02,0.935,0.801
NCI-H1944,0.794,0.63,0.663,0.611,0.671,0.686,0.561,0.521,1.2,1.11,1.04,0.634,0.589,0.576,0.461,0.456,0.483,0.546,0.501,0.581
HCC-78,0.948,0.83,0.91,0.9,0.923,0.489,0.414,0.425,0.375,0.285,0.334,1.01,0.915,0.967,0.748,0.714,0.599,0.647,0.552,0.535
PC-3 [JPC-3],0.783,0.753,1.01,1.07,0.37,–,0.637,0.895,1.07,0.907,0.927,–,1.07,0.949,–,0.817,0.826,–,0.763,0.75

Cell Line,relative viability (RO-3306 + Pemetrexed; first compound 0.01 µM),relative viability (RO-3306 + Pemetrexed; first compound 0.03162 µM),relative viability (RO-3306 + Pemetrexed; first compound 0.1 µM),relative viability (RO-3306 + Pemetrexed; first compound 0.3162 µM),relative viability (RO-3306 + Pemetrexed; first compound 1 µM),relative viability ([1]; first compound 0.8 µM),relative viability ([1]; first compound 2.53 µM),relative viability ([1]; first compound 8 µM),relative viability ([2]; first compound 0.8 µM),relative viability ([2]; first compound 2.53 µM),relative viability ([2]; first compound 8 µM),relative viability ([3]; first compound 0.8 µM),relative viability ([3]; first compound 2.53 µM),relative viability ([3]; first compound 8 µM),relative viability ([4]; first compound 0.8 µM),relative viability ([4]; first compound 2.53 µM),relative viability ([4]; first compound 8 µM),relative viability ([5]; first compound 0.8 µM),relative viability ([5]; first compound 2.53 µM),relative viability ([5]; first compound 8 µM)
NCI-H2126,0.673,0.671,0.707,0.735,0.676,0.89,0.684,0.723,1.08,1.02,1.03,0.82,0.743,0.672,0.655,0.573,0.533,1.19,1.1,0.999
LK-2,0.266,0.293,0.264,0.275,0.288,0.27,0.247,0.346,0.2,0.229,0.242,0.283,0.266,0.298,0.333,0.347,0.325,0.488,0.682,0.412
NCI-H460,0.0602,0.0669,0.0671,0.0618,0.0563,0.847,0.673,0.618,0.824,1.03,1,0.0543,0.0599,0.0652,0.681,0.462,0.349,0.571,0.555,0.625
HCC-827,0.265,0.26,0.27,0.254,0.277,0.874,0.842,0.781,0.932,0.917,0.95,0.266,0.246,0.239,0.364,0.375,0.269,0.209,0.187,0.178
NCI-H838,0.256,0.252,0.252,0.251,0.282,0.812,0.737,0.699,1.05,0.866,0.815,0.236,0.242,0.259,0.474,0.46,0.482,0.998,0.894,0.871
NCI-H2347,0.44,0.37,0.428,0.433,0.437,0.695,0.52,0.548,0.873,0.658,0.751,0.47,0.445,0.395,0.657,0.614,0.66,0.942,0.724,0.742
HARA,0.242,–,0.227,0.24,0.288,0.507,0.509,0.388,0.98,0.945,0.682,0.254,–,0.269,0.426,–,0.657,0.437,–,0.318
NCI-H1355,1.15,0.976,0.961,0.97,1.05,0.698,0.624,0.606,1.22,0.98,0.935,1.12,1.03,1.03,0.354,0.382,0.342,0.789,0.733,0.703
NCI-H1437,0.343,0.311,0.374,0.344,0.37,0.787,0.572,0.665,0.909,0.706,0.744,0.324,0.308,0.326,0.609,0.549,0.568,1.08,0.995,0.849
NCI-H358,0.192,0.154,0.177,0.189,0.174,–,0.581,0.541,0.606,0.515,0.512,–,0.177,0.181,–,0.19,0.129,0.385,0.369,0.371
HOP-62,0.371,0.438,0.318,0.307,0.416,0.716,0.508,0.522,1.04,0.871,0.913,0.238,0.271,0.243,0.252,0.193,0.239,0.649,0.517,0.598
EKVX,0.416,0.306,0.405,0.444,0.454,0.697,0.513,0.535,1.09,0.85,0.898,0.388,0.362,0.292,0.405,0.286,0.209,0.664,0.708,0.503
NCI-H1666,0.94,0.798,0.819,0.836,0.868,0.712,0.823,0.809,0.96,0.795,0.82,0.768,0.818,0.832,0.697,0.661,0.684,0.806,0.76,0.716
NCI-H2170,0.314,0.311,0.241,0.251,0.271,0.863,0.695,0.761,1.25,1.19,1.21,0.256,0.274,0.28,0.496,0.439,0.475,0.994,0.817,0.961
201T,0.277,0.315,0.358,0.32,0.41,0.953,0.918,0.865,1,0.902,1,0.331,0.343,0.401,0.846,0.858,0.834,0.797,0.617,0.637
